Measurements as given in patent US20140037642A1, “METHODS AND COMPOSITIONS RELATING TO INHIBITION OF IGF-1R” (AMGEN INC., priority 2011, published 2014).
Values joined by “and” are separate entries in the source; they are usually repeats but may differ in a detail not shown here. Identical values can stand only once. Like-named read-outs stand apart in the source and are kept apart here.

Columns and labels:
[1] = system: colorectal cancer (CRC); conditions: Study Drug 6 mg/kg + panitumumab 6 mg/kg
Description: Another study was done in subjects with colorectal cancer (CRC).

[2] = system: metastatic pancreatic cancer patients; test: Placebo-controlled, randomized phase 2 study plus gemcitabine; type: in vivo, human; conditions: for 6-Month OS Rate (95% CI) / 12-Month OS Rate (95% CI) / Median OS, Months (95% CI) / Median PFS, Months (95% CI): conatumumab 10 mg/kg Q2W or ganitumab 12 mg/kg Q2W; for Stratified HR (95% CI), OS / Stratified HR (95% CI), PFS: versus placebo plus gemcitabine
Procedure: The primary endpoint was six month overall survival rate.
Key inclusion criteria were histologically or cytologically documented metastatic adenocarcinoma of the pancreas, age eighteen years or older, ECOG PS 0 or 1, adequate hematologic, hepatic, renal, and coagulation function, amylase and lipase≦2.0×ULN, adequately controlled type 1 or 2 diabetes (amended during protocol to fasting blood glucose<[…] only), fasting blood glucose≦[…], HbAlc<8%, and written informed consent.
Key exclusion criteria were uncontrolled cardiac disease and prior chemotherapy or radiation in the adjuvant or metastatic setting.

[3] = system: metastatic pancreatic cancer patients; conditions: for OS, HR (95% CI) for one unit increment in logAUCss / PFS, HR (95% CI) for one unit increment in logAUCss: univariate Cox model
Procedure: Multivariate analysis was performed to evaluate the effect of exposure on OS and PFS adjusting for potential confounding factors using Cox proportional hazard models with a forward selection technique. All baseline factors were initial candidates in the forward selection model. Only the most statistically significant variables were added to the final model after the forward selection process.
The effect of exposure on the incidence of selected adverse events (hearing and vestibular disorders, hepatic disorders, hyperglycemia, infusion reaction, neutropenia, rash and skin-related toxicity, thrombocytopenia, and venous embolic and thrombotic events) was summarized with descriptive statistics.
The effect of exposure on changes in selected laboratory values (aspartate transaminase, alanine transaminase, fasting glucose, total neutrophils, and platelets) was assessed by linear regression.

[4] = system: metastatic pancreatic cancer patients; test: Overall survival in baseline circulating biomarker subgroups of the phase 2 study; type: in vivo, human; set-up: Median OS: unit not given here
Description: To establish the relationship between levels of these baseline markers and overall survival, a Cox proportional hazard model was used to calculate hazard ratios (HR) using normalized log transformed marker concentrations. This analysis tests the risk of death associated with a unit increase in the normalized log baseline biomarker and this risk is expressed as a hazard ratio. Because of the small sample size, it is difficult to dissect prognostic associations from relationships that are modified by treatment with ganitumab relative to placebo, i.e., predictive. This is because the addition of treatment effect adds a variable to the analysis that compromises the power of the test masking significant predictive relationships that may exist. However even a prognostic relationship identified in this analysis is important because it informs the hypothesized relationship between circulating bioavailable ligands and the adaptation of the tumor to IGF-1R dependent progression, and in turn sensitivity to inhibitors that block IGF-1R or downstream signaling pathways.
This allows a direct test of the predictive value of using these markers in a dichotomized way to predict OS in pancreatic cancer patients that are treated with inhibitors of IGF-1R.
To represent these relationships Kaplan-Maier plots were generated that show the OS for the high and low subgroups by plotting the fraction of patients in each sub-group that survive against time.

[5] = system: tumors in human subjects
Procedure: Each subject was assigned to one of six dosing cohorts. […] The subjects also received individualized palliative care, as appropriate, to reduce the severity of their symptoms.
Response to treatment was assessed using the Response Evaluation Criteria in Solid Tumors (RECIST) criteria as described in Therasse et al. 2000, J Natl Cancer Inst. […] Briefly, prior to administration of the first dose, each subject was given a computerized tomography (CT) scan to determine the length of the largest measurable tumor along its longest diameter (“Baseline TM (cm)” in Table 9). CT scans were used to measure the same tumors along the same diameter at certain points after initiation of treatment (“Day X Tumor (cm)” in Table 9). Each such measurement was compared to the baseline tumor measurement for the same subject to calculate the percent increase or decrease in tumor size.

[6] = system: non-CRC tumors; conditions: Study Drug 6 mg/kg + panitumumab 6 mg/kg
[7] = patients with measurable disease at baseline, plus gemcitabine
[8] = plus gemcitabine, listed as ganitumab
[9] = Ganitumab and Placebo (logAUCss = 0)
[10] = multivariate Cox model, ganitumab-treated arm
[11] = Subject #1, Nerve Sheath, 3 mg/Kg
[12] = Subject #4, Colorectal, 10 mg/Kg
[13] = Subject #8, diagnosis Unknown, 1 mg/Kg
[14] = Subject #10, Adenoid R eye, 20 mg/Kg
[15] = Subject #11, Carcinoid, 3 mg/Kg
[16] = Subject #11, Carcinoid, 3 mg/Kg cohort
[17] = twelve subjects, 1 to 20 mg/kg, RECIST

Ganitumab
Wk 8 change (RECIST) [1]: −27% | Wk 8 change (WHO) ([1]; CT): −39% | Best Overall Response: Confirmed CR - n (%) [2, 7]: 0 (0) n (%) | Best Overall Response: Confirmed PR - n (%) [2, 7]: 4 (10) n (%) | Best Overall Response: PD - n (%) [2, 7]: 13 (33) n (%) | Best Overall Response: SD (Includes Unconfirmed PR) - n (%) [2, 7]: 16 (41) n (%) | Best Overall Response: Unconfirmed PR - n (%) [2, 7]: 0 (0) n (%) | Best Overall Response: Unknown - n (%) [2, 7]: 6 (15) n (%) | rate of SD+PR ([2]; plus gemcitabine): 51% | 6-Month OS Rate (95% CI) ([2]; plus gemcitabine): 57% (41, 70) | 12-Month OS Rate (95% CI) ([2]; plus gemcitabine): 39% (25, 54) | Median OS, Months (95% CI) ([2]; plus gemcitabine): 8.7 (5.3, 12.2) Months | Median PFS, Months (95% CI) ([2]; plus gemcitabine): 5.1 (2.8, 5.8) Months | 6-Month OS Rate (95% CI) [2, 8]: 57% | 12-Month OS Rate (95% CI) [2, 8]: 39% | Median OS, Months (95% CI) [2, 8]: 8.7 Months | Median PFS, Months (95% CI) [2, 8]: 5.1 Months | Stratified HR (95% CI), OS [2]: 0.67 (0.41, 1.12) | Stratified HR (95% CI), PFS [2]: 0.65 (0.41, 1.04) | Stratified HR (95% CI), OS ([2]; listed as ganitumab): 0.67 | Stratified HR (95% CI), PFS ([2]; listed as ganitumab): 0.65 | OS, HR (95% CI) for one unit increment in logAUCss ([3]; Ganitumab Only): 0.0421 (0.0089, 0.1983) | PFS, HR (95% CI) for one unit increment in logAUCss ([3]; Ganitumab Only): 0.0611 (0.0160, 0.2327) | OS, HR (95% CI) for one unit increment in logAUCss [3, 9]: 0.8288 (0.6978, 0.9845) | PFS, HR (95% CI) for one unit increment in logAUCss [3, 9]: 0.8322 (0.7111, 0.9741) | Log AUCss HR, effect on Overall Survival [3, 10]: 0.0842 | Log AUCss HR, effect on Progression Free Survival [3, 10]: 0.1355 | Log AUCss Parameter Estimate, effect on Overall Survival [3, 10]: −2.4742 | Log AUCss Parameter Estimate, effect on Progression Free Survival [3, 10]: −1.9986 | difference in median OS, ganitumab treatment arm versus placebo arm ([4]; Free IGF-1 high subgroup): 7.59 months | Median OS ([4]; IGF-2 High (>=median)): 368 | OS HR, treatment vs placebo ([4]; IGF-2 High (>=median)): 0.24 | Median OS ([4]; IGF-2 Low (<median)): 217.5 | OS HR, treatment vs placebo ([4]; IGF-2 Low (<median)): 0.95 | Median OS ([4]; IGF-BP1 High (>=median)): 170 | OS HR, treatment vs placebo ([4]; IGF-BP1 High (>=median)): 0.5 | OS HR, treatment vs placebo ([4]; IGF-BP1 Low (<median)): 0.41 | Median OS ([4]; IGF-BP2 High (>=median)): 165 | OS HR, treatment vs placebo ([4]; IGF-BP2 High (>=median)): 0.69 | Median OS ([4]; IGF-BP2 Low (<median)): 487 | OS HR, treatment vs placebo ([4]; IGF-BP2 Low (<median)): 0.19 | Median OS ([4]; IGF-BP3 High (>=median)): 487 | OS HR, treatment vs placebo ([4]; IGF-BP3 High (>=median)): 0.28 | Median OS ([4]; IGF-BP3 Low (<median)): 168 | OS HR, treatment vs placebo ([4]; IGF-BP3 Low (<median)): 0.94 | Median OS ([4]; IGF-BP4 High (>=median)): 368 | OS HR, treatment vs placebo ([4]; IGF-BP4 High (>=median)): 0.39 | Median OS ([4]; IGF-BP4 Low (<median)): 174.5 | OS HR, treatment vs placebo ([4]; IGF-BP4 Low (<median)): 0.63 | Median OS ([4]; Total IGF-1 High (>=median)): 487 | OS HR, treatment vs placebo ([4]; Total IGF-1 High (>=median)): 0.25 | Median OS ([4]; Total IGF-1 Low (<median)): 142 | OS HR, treatment vs placebo ([4]; Total IGF-1 Low (<median)): 0.59 | time to significant symptomatic relief after the first dose ([5]; CR subject, Ewing's sarcoma, 12 mg/kg): two | response according to RECIST at day 434 ([5]; CR subject, Ewing's sarcoma, 12 mg/kg at 14 day intervals): CR (100% reduction in tumor dimension) | PET scan, uptake of labeled glucose by tumor ([5]; CR subject, Ewing's sarcoma, 12 mg/kg, day 50): no detectable uptake of labeled glucose | decrease in tumor size from baseline (RECIST) ([5]; CR subject, Ewing's sarcoma, 12 mg/kg, day 50, CT scan): 78% | maximum RECIST tumor dimension reduction ([5]; PR subject, mid gut carcinoid tumor, 3 mg/kg at 14 day intervals): 63% | RECIST tumor dimension decrease ([5]; PR subject, mid gut carcinoid tumor, 3 mg/kg, after 33 weeks in the trial): 48% | RECIST tumor dimension ([5]; PR subject, mid gut carcinoid tumor, 3 mg/kg, after 33 weeks in the trial, baseline 13.1 cm): 6.8 cm | Day 50 Tumor (cm) [5, 11]: 1.4 cm | Day 50 Tumor, percent change vs baseline [5, 11]: (+27%) | Day 50 Tumor (cm) ([5]; Subject #2, Prostate, 10 mg/Kg): 18.8 cm | Day 50 Tumor, percent change vs baseline ([5]; Subject #2, Prostate, 10 mg/Kg): (+21%) | Day 50 Tumor (cm) ([5]; Subject #3, Ovarian, 20 mg/Kg): 18.6 cm | Day 50 Tumor, percent change vs baseline ([5]; Subject #3, Ovarian, 20 mg/Kg): (+17%) | Day 50 Tumor (cm) [5, 12]: 45.3 cm | Day 50 Tumor, percent change vs baseline [5, 12]: (+7%) | Day 50 Tumor (cm) ([5]; Subject #5, Thymus, 1 mg/Kg): 10.4 cm | Day 50 Tumor, percent change vs baseline ([5]; Subject #5, Thymus, 1 mg/Kg): (+4%) | Day 50 Tumor (cm) ([5]; Subject #6, Melanoma, 10 mg/Kg): 28.4 cm | Day 50 Tumor, percent change vs baseline ([5]; Subject #6, Melanoma, 10 mg/Kg): (+1%) | Day 50 Tumor (cm) ([5]; Subject #7, Adenoid, 1 mg/Kg): 30.9 cm | Day 50 Tumor, percent change vs baseline ([5]; Subject #7, Adenoid, 1 mg/Kg): (−1%) | Day 50 Tumor (cm) [5, 13]: 18.2 cm | Day 50 Tumor, percent change vs baseline [5, 13]: (−2%) | Day 106 Tumor (cm) [5, 13]: 18.9 cm | Day 106 Tumor, percent change vs baseline [5, 13]: (+2%) | Day 162 Tumor (cm) [5, 13]: 23.2 cm | Day 162 Tumor, percent change vs baseline [5, 13]: (+25%) | Day 50 Tumor (cm) ([5]; Subject #9, Breast, 20 mg/Kg): 4.7 cm | Day 50 Tumor, percent change vs baseline ([5]; Subject #9, Breast, 20 mg/Kg): (−2%) | Day 50 Tumor (cm) [5, 14]: 35.2 cm | Day 50 Tumor, percent change vs baseline [5, 14]: (−9%) | Day 50 Tumor (cm) [5, 15]: 14 cm | Day 50 Tumor, percent change vs baseline [5, 15]: (+7%) | Day 106 Tumor (cm) [5, 15]: 11 cm | Day 106 Tumor, percent change vs baseline [5, 15]: (−16%) | Day 169 Tumor (cm) [5, 15]: 10.6 cm | Day 169 Tumor, percent change vs baseline [5, 15]: (−19%) | Day 225 Tumor (cm) [5, 15]: 8.4 cm | Day 225 Tumor, percent change vs baseline [5, 15]: (−36%) | Day 281 Tumor (cm) [5, 16]: 8.2 cm | Day 281 Tumor, percent change vs baseline [5, 16]: (−37%) | Day 338 Tumor (cm) [5, 16]: 6.8 cm | Day 338 Tumor, percent change vs baseline [5, 16]: (−48%) | Day 50 Tumor (cm) ([5]; Subject #12, Ewing's, 12 mg/Kg): 2.2 cm | Day 50 Tumor, percent change vs baseline ([5]; Subject #12, Ewing's, 12 mg/Kg): (−78%) | Day 85 Tumor, percent change vs baseline ([5]; Subject #12, Ewing's, 12 mg/Kg): (−100%) | Day 85 Tumor (cm) ([5]; Subject #12, Ewing's, 12 mg/Kg, listed as Study Drug): 0 cm and 0.0 cm | number of subjects with a reduction in tumor size of at least 30% [5, 17]: two | number of subjects with best response progressive disease (PD) [5, 17]: two | best response (WHO criteria) ([6]; subject with a GE Junction tumor): stable disease | best response (WHO criteria) ([6]; subject with a pancreatic tumor): stable disease | best response (WHO criteria) ([6]; subject with a thyroid tumor): progressive disease
